# In ChEMBL document CHEMBL1201862, “PubChem BioAssay data set” (2004):
#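 Five compound concentrations were applied to cells in 96-well plates for 48 hours; endpoints were derived by simple linear interpolation of the resulting dose-response curve. Here, GI50 denotes the concentration required for 50% inhibition of growth.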 Calls of active or inactive are those of the source. No stated cut-off is given here; in the data, active = GI50 up to about 1.1 µM and inactive = higher.
# Experiments:
# Experiment in all cases: NCI anticancer screen, dose series, 48 h
# [1] = tested on: 786-0
# [2] = tested on: A498
# [3] = tested on: CAKI-1
# [4] = tested on: EKVX
# [5] = tested on: HCT-116
# [6] = tested on: HOP-62
# [7] = tested on: HOP-92
# [8] = tested on: IGROV-1
# [9] = tested on: M14
# [10] = tested on: MDA-MB-435
# [11] = tested on: NCI-H226
# [12] = tested on: OVCAR-5
# [13] = tested on: OVCAR-8
# [14] = tested on: RPMI-8226
# [15] = tested on: SF-295
# [16] = tested on: SK-MEL-2
# [17] = tested on: SN12C
# [18] = tested on: SR
# [19] = tested on: UACC-257
# [20] = tested on: UO-31
Compound,GI50 [1],GI50 [2],GI50 [3],GI50 [4],GI50 [5],GI50 [6],GI50 [7],GI50 [8],GI50 [9],GI50 [10],GI50 [11],GI50 [12],GI50 [13],GI50 [14],GI50 [15],GI50 [16],GI50 [17],GI50 [18],GI50 [19],GI50 [20]
Clc1cccc(/C=c2\nc(-c3ccccc3)n3c2nc2ccccc23)c1,> 100 µM (inactive),> 100 µM (inactive),> 100 µM (inactive),28.5 µM (inactive),> 100 µM (inactive),71.3 µM (inactive),4.38 µM (inactive),> 100 µM (inactive),> 100 µM (inactive),> 100 µM (inactive),> 100 µM (inactive),> 100 µM (inactive),> 100 µM (inactive),> 100 µM (inactive),73.3 µM (inactive),> 100 µM (inactive),> 100 µM (inactive),> 100 µM (inactive),> 100 µM (inactive),> 100 µM (inactive)
CCOP(=O)(OCC)/C(C#N)=C\c1cccc2ccccc12,> 71.4 µM (inactive),44.5 µM (inactive),74.3 µM (inactive),31.9 µM (inactive),46 µM (inactive),> 56.6 µM (inactive),23 µM (inactive),> 82.4 µM (inactive),80 µM (inactive),34.7 µM (inactive),32.4 µM (inactive),> 100 µM (inactive),> 45.7 µM (inactive),23 µM (inactive),60.1 µM (inactive),> 62.1 µM (inactive),82.4 µM (inactive),31.8 µM (inactive),71.3 µM (inactive),56.9 µM (inactive)
COc1cc(S(=O)(=O)Nc2ccc(-c3csc(N4C(=O)C(Cl)C4c4ccccc4O)n3)cc2)ccc1Cl (stereo not given),35.1 µM (inactive),0.454 µM (active),> 100 µM (inactive),15.4 µM (inactive),30.3 µM (inactive),> 100 µM (inactive),28 µM (inactive),11.9 µM (inactive),50.9 µM (inactive),31.4 µM (inactive),37.8 µM (inactive),47.8 µM (inactive),53.6 µM (inactive),23.2 µM (inactive),> 100 µM (inactive),37.8 µM (inactive),33.1 µM (inactive),4.82 µM (inactive),29.1 µM (inactive),31.9 µM (inactive)
CC(C)(C)OC(=O)N1CCC2(CC1)C(=O)NCN2c1ccccc1,> 100 µM (inactive),> 100 µM (inactive),> 100 µM (inactive),> 100 µM (inactive),> 100 µM (inactive),> 100 µM (inactive),> 100 µM (inactive),> 100 µM (inactive),> 100 µM (inactive),> 100 µM (inactive),> 100 µM (inactive),> 100 µM (inactive),> 100 µM (inactive),> 100 µM (inactive),> 100 µM (inactive),> 100 µM (inactive),> 100 µM (inactive),> 100 µM (inactive),> 100 µM (inactive),> 100 µM (inactive)
O=C(/C=C/c1ccc(OCCSCCCCCCCCCCSCCOc2ccc(/C=C/C(=O)c3ccc(Cl)cc3)cc2)cc1)c1ccc(Cl)cc1,75.3 µM (inactive),> 100 µM (inactive),> 83.2 µM (inactive),> 100 µM (inactive),> 100 µM (inactive),51.2 µM (inactive),47.4 µM (inactive),> 100 µM (inactive),> 100 µM (inactive),> 100 µM (inactive),> 76.2 µM (inactive),> 100 µM (inactive),> 100 µM (inactive),> 100 µM (inactive),65.8 µM (inactive),61.8 µM (inactive),> 100 µM (inactive),> 92.7 µM (inactive),> 100 µM (inactive),> 100 µM (inactive)
CCOC(=O)CC[C@H](NC(=O)[C@H](N)Cc1ccc(N(CCCl)CCCl)cc1)C(=O)OCC,9.55 µM (inactive),> 100 µM (inactive),4.65 µM (inactive),> 42.6 µM (inactive),22.2 µM (inactive),21.6 µM (inactive),3.64 µM (inactive),40.6 µM (inactive),8.65 µM (inactive),26.9 µM (inactive),> 34.7 µM (inactive),26.4 µM (inactive),10.6 µM (inactive),19.6 µM (inactive),29.2 µM (inactive),29.4 µM (inactive),14.2 µM (inactive),1.91 µM (inactive),11 µM (inactive),14.1 µM (inactive)
O=C(O)c1nc2cc(Cl)ccc2[nH]c1=O,> 100 µM (inactive),> 100 µM (inactive),> 100 µM (inactive),> 100 µM (inactive),> 100 µM (inactive),> 100 µM (inactive),> 100 µM (inactive),> 100 µM (inactive),> 100 µM (inactive),> 100 µM (inactive),> 100 µM (inactive),> 100 µM (inactive),> 100 µM (inactive),> 100 µM (inactive),> 100 µM (inactive),> 100 µM (inactive),> 100 µM (inactive),> 100 µM (inactive),> 100 µM (inactive),> 100 µM (inactive)
CC1(C)C(=O)C(C)(C)C12SSC1(S2)C(C)(C)C(=O)C1(C)C,> 100 µM (inactive),> 100 µM (inactive),> 100 µM (inactive),> 100 µM (inactive),> 100 µM (inactive),> 100 µM (inactive),> 100 µM (inactive),> 100 µM (inactive),> 100 µM (inactive),> 100 µM (inactive),42.6 µM (inactive),> 100 µM (inactive),> 100 µM (inactive),65.9 µM (inactive),> 100 µM (inactive),> 100 µM (inactive),> 100 µM (inactive),> 100 µM (inactive),> 100 µM (inactive),> 100 µM (inactive)
COC(=O)CC1(O)C(/C=C/c2ccccc2)C(C(=O)OC)C(=O)C(C(=O)OC)C1C(=O)OC (stereo not given),> 100 µM (inactive),> 100 µM (inactive),> 100 µM (inactive),> 100 µM (inactive),54 µM (inactive),> 100 µM (inactive),> 100 µM (inactive),> 100 µM (inactive),> 100 µM (inactive),> 100 µM (inactive),> 100 µM (inactive),> 100 µM (inactive),> 100 µM (inactive),> 100 µM (inactive),18.5 µM (inactive),> 100 µM (inactive),> 100 µM (inactive),> 100 µM (inactive),> 100 µM (inactive),> 100 µM (inactive)
COC(=O)C1=CO[C@@H](OC2OC(CO)C(O)C(O)C2O)[C@@H]2[C@H](C)[C@@H](O)[C@@H](O)[C@]12O (stereo not given in full),> 100 µM (inactive),> 100 µM (inactive),13.4 µM (inactive),> 100 µM (inactive),> 100 µM (inactive),> 100 µM (inactive),> 100 µM (inactive),> 100 µM (inactive),> 100 µM (inactive),> 100 µM (inactive),> 100 µM (inactive),> 100 µM (inactive),> 100 µM (inactive),> 100 µM (inactive),> 100 µM (inactive),> 100 µM (inactive),> 100 µM (inactive),> 100 µM (inactive),> 100 µM (inactive),> 100 µM (inactive)
Cc1ccc(OCC2OC(n3cnc4c(Br)nc(Br)nc43)CC2Oc2ccc(C)cc2)cc1 (stereo not given),3.02 µM (inactive),10.5 µM (inactive),1.97 µM (inactive),2.05 µM (inactive),1.89 µM (inactive),3.61 µM (inactive),2.41 µM (inactive),5.04 µM (inactive),2.59 µM (inactive),5.85 µM (inactive),14.6 µM (inactive),12.3 µM (inactive),3.69 µM (inactive),9.29 µM (inactive),8.49 µM (inactive),2.75 µM (inactive),3.37 µM (inactive),1.96 µM (inactive),7.06 µM (inactive),14.3 µM (inactive)
COc1cc(CNc2ccc3nc4n(c(=O)c3c2)CCCCC4)cc(OC)c1OC,> 100 µM (inactive),50.6 µM (inactive),64 µM (inactive),36.6 µM (inactive),57.5 µM (inactive),95.1 µM (inactive),76 µM (inactive),95.1 µM (inactive),94.4 µM (inactive),31.7 µM (inactive),78.9 µM (inactive),> 100 µM (inactive),> 100 µM (inactive),72.3 µM (inactive),47.9 µM (inactive),40.4 µM (inactive),> 100 µM (inactive),> 100 µM (inactive),24.3 µM (inactive),35.4 µM (inactive)
Cc1ccc2ccc(=O)oc2c1,> 100 µM (inactive),> 100 µM (inactive),> 100 µM (inactive),> 100 µM (inactive),> 100 µM (inactive),> 100 µM (inactive),> 100 µM (inactive),> 100 µM (inactive),> 100 µM (inactive),> 100 µM (inactive),> 100 µM (inactive),> 100 µM (inactive),> 100 µM (inactive),> 100 µM (inactive),> 100 µM (inactive),> 100 µM (inactive),> 100 µM (inactive),> 100 µM (inactive),> 100 µM (inactive),> 100 µM (inactive)
Nc1nc(SCc2ccccc2[N+](=O)[O-])c2[nH]cnc2n1,> 65.2 µM (inactive),18.6 µM (inactive),38.7 µM (inactive),> 53.5 µM (inactive),> 60.1 µM (inactive),> 69.5 µM (inactive),2.23 µM (inactive),> 38 µM (inactive),> 53.3 µM (inactive),36 µM (inactive),> 50.9 µM (inactive),42.3 µM (inactive),> 52.8 µM (inactive),> 47.2 µM (inactive),> 67.6 µM (inactive),26.7 µM (inactive),> 57.1 µM (inactive),> 51.6 µM (inactive),> 40.1 µM (inactive),> 66.5 µM (inactive)
